This is an account of results in US10849881B2, “Octahydro-cyclobuta[1,2-c;3,4-c′]dipyrrol-2-yl” (Hoffmann-La Roche Inc., priority 2013, dated 2020).

The assay addresses ATX (human His-tagged) (Homo sapiens (Human), UniProt Q13822). As to the kind of experiment: Human ATX enzyme inhibition assay (fluorescence quenching, MR121 substrate). The assay is classed as biochemical. Conditions: 30 nM ATX, 1 μM MR121 substrate, 30° C., pH 8.0. An outline of the steps:
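Fluorescence quenching assay with MR121/tryptophan-labelled substrate analogue in Tris-HCl buffer (140 mM NaCl, CaCl2, MgCl2, 0.01% Triton X-100, pH 8.0). Serially diluted compounds were preincubated 15 min at 30 °C with 30 nM ATX (final), then 1 µM substrate (final) added and incubated 15 min at 30 °C.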

Broadly, the IC50 is the concentration at which inhibition is half-maximal. Read a high IC50 as weaker potency.

Turning to `CCOc1nc(C(=O)N2C[C@@H]3[C@H](C2)[C@H]2CN(C(=O)c4ccc5[nH]nnc5n4)C[C@@H]32)cc2ccccc12` [Example 1.092, [(3aS,3bS,6aR,6bR)-5-(1-ethoxy-isoquinoline-3-carbonyl)-octahydro-cyclobuta[1,2-c;3,4-c′]dipyrrol-2-yl]-(1H-[1,2,3]triazolo[4,5-b]pyridin-5-yl)-methanone], it took 18 nM to reach half-maximal inhibition (IC50).

`O=C(c1ccc2[nH]nnc2c1)N1C[C@@H]2[C@H](C1)[C@H]1CN(C(=O)c3cc(OCC4CC4)c4ccccc4n3)C[C@@H]21` [Example 1.071, [(3aR,3bS,6aR,6bS)-5-(1H-benzotriazole-5-carbonyl)-octahydro-cyclobuta[1,2-c;3,4-c′]dipyrrol-2-yl]-(4-cyclopropylmethoxy-quinolin-2-yl)-methanone] came in with an IC50 of 3.5 nM. Then `O=C(c1ccc2[nH]nnc2c1)N1C[C@@H]2[C@H](C1)[C@H]1CN(C(=O)c3cc(OCC4CC4)c(Cl)cn3)C[C@@H]21` [Example 1.086, (1H-benzotriazol-5-yl)-[(3aS,3bR,6aS,6bR)-5-(5-chloro-4-cyclopropylmethoxy-pyridine-2-carbonyl)-octahydro-cyclobuta[1,2-c;3,4-c′]dipyrrol-2-yl]-methanone], with 17 nM; and `N#CCn1c(C(=O)N2C[C@@H]3[C@H]4CN(C(=O)c5ccc6[nH]nnc6c5)C[C@H]4[C@@H]3C2)cc2ccccc21` [Example 1.036, {2-[(3aR,3bS,6aR,6bS)-5-(1H-benzotriazole-5-carbonyl)-octahydro-cyclobuta[1,2-c;3,4-c′]dipyrrole-2-carbonyl]-indol-1-yl}-acetonitrile], with 130 nM; and `CCOc1cc(C(=O)N2C[C@@H]3[C@H]4CN(C(=O)c5ccc6[nH]nnc6c5)C[C@H]4[C@@H]3C2)nc2ccccc12` [Example 1.066, [(3aR,3bS,6aR,6bS)-5-(1H-benzotriazole-5-carbonyl)-octahydro-cyclobuta[1,2-c;3,4-c′]dipyrrol-2-yl]-(4-ethoxy-quinolin-2-yl)-methanone], with 5 nM. Then `O=C(c1ccc2[nH]nnc2c1)N1C[C@@H]2[C@H](C1)[C@H]1CN(C(=O)c3cc4ccccc4c(OCC4CC4)n3)C[C@@H]21` [Example 1.058, [(3aR,3bS,6aR,6bS)-5-(1H-benzotriazole-5-carbonyl)-octahydro-cyclobuta[1,2-c;3,4-c′]dipyrrol-2-yl]-(1-cyclopropylmethoxy-isoquinolin-3-yl)-methanone], with 5.3 nM; and `O=C(c1ccc2[nH]nnc2c1)N1C[C@@H]2[C@H](C1)[C@H]1CN(C(=O)c3cc4ccccc4cn3)C[C@@H]21` [Example 1.039, [(3aR,3bS,6aR,6bS)-5-(1H-benzotriazole-5-carbonyl)-octahydro-cyclobuta[1,2-c;3,4-c′]dipyrrol-2-yl]-isoquinolin-3-yl-methanone], with 3330 nM; and `CCOc1cc(C(=O)N2C[C@@H]3[C@H]4CN(C(=O)c5ccc6[nH]nnc6c5)C[C@H]4[C@@H]3C2)nc2cc(OC)ccc12` [Example 1.090, (1H-benzotriazol-5-yl)-[(3aS,3bR,6aS,6bR)-5-(4-ethoxy-7-methoxy-quinoline-2-carbonyl)-octahydro-cyclobuta[1,2-c;3,4-c′]dipyrrol-2-yl]-methanone], with 19 nM.

Compound `O=C(c1ccc2c(c1)CCCC2)N1C[C@@H]2[C@H](C1)[C@H]1CN(C(=O)c3ccc4[nH]nnc4c3)C[C@@H]21` [Example 1.054, [(3aS,3bS,6aR,6bR)-5-(1H-benzotriazole-5-carbonyl)-octahydro-cyclobuta[1,2-c;3,4-c′]dipyrrol-2-yl]-(5,6,7,8-tetrahydro-naphthalen-2-yl)-methanone] had an IC50 of 59.2 nM.

In the case of `O=C(c1ccc2[nH]nnc2c1)N1C[C@@H]2[C@H](C1)[C@H]1CN(C(=O)c3cc4cc(Cl)ccc4[nH]3)C[C@@H]21` [Example 1.048, [(3aR,3bS,6aR,6bS)-5-(1H-benzotriazole-5-carbonyl)-octahydro-cyclobuta[1,2-c;3,4-c′]dipyrrol-2-yl]-(5-chloro-1H-indol-2-yl)-methanone], the IC50 was determined as 208 nM.

For the compound `O=C(c1ccc(-c2ccc(Cl)cc2)cc1)N1C[C@@H]2[C@H](C1)[C@H]1CN(C(=O)[C@@H]3CCc4[nH]nnc4C3)C[C@@H]21` [Example 1.018, (4′-chloro-biphenyl-4-yl)-[(3aR,3bS,6aR,6bS)-5-((R)-4,5,6,7-tetrahydro-1H-benzotriazole-5-carbonyl)-octahydro-cyclobuta[1,2-c;3,4-c′]dipyrrol-2-yl]-methanone], inhibition was half-maximal at 16 nM (IC50). `O=C(c1ccc2ccccc2c1)N1C[C@@H]2[C@H](C1)[C@H]1CN(C(=O)c3ccc4[nH]nnc4c3)C[C@@H]21` [Example 1.012, [(3aS,3bS,6aR,6bR)-5-(1H-benzotriazole-5-carbonyl)-octahydro-cyclobuta[1,2-c;3,4-c′]dipyrrol-2-yl]-naphthalen-2-yl-methanone] displayed an IC50 of 86 nM. Then `O=C(c1ccc2[nH]nnc2c1)N1C[C@@H]2[C@H](C1)[C@H]1CN(S(=O)(=O)c3ccc4cc(Cl)ccc4c3)C[C@@H]21` [Example 3.001, (1H-Benzotriazol-5-yl)-[(3aS,3bR,6aS,6bR)-5-(6-chloro-naphthalene-2-sulfonyl)-octahydro-cyclobuta[1,2-c;3,4-c′]dipyrrol-2-yl]-methanone], with 232 nM; and `O=C(c1ccc2[nH]nnc2c1)N1C[C@@H]2[C@H](C1)[C@H]1CN(C(=O)c3cc4ccc(Cl)cc4[nH]3)C[C@@H]21` [Example 1.033, [(3aR,3bS,6aR,6bS)-5-(1H-benzotriazole-5-carbonyl)-octahydro-cyclobuta[1,2-c;3,4-c′]dipyrrol-2-yl]-(6-chloro-1H-indol-2-yl)-methanone], with 104 nM; and `O=C(c1ccc2[nH]nnc2c1)N1C[C@@H]2[C@H](C1)[C@H]1CN(C(=O)c3cc(OCC(F)(F)F)c(C4CC4)cn3)C[C@@H]21` [Example 1.094, (1H-benzotriazol-5-yl)-{(3aS,3bR,6aS,6bR)-5-[5-cyclopropyl-4-(2,2,2-trifluoro-ethoxy)-pyridine-2-carbonyl]-octahydro-cyclobuta[1,2-c;3,4-c′]dipyrrol-2-yl}-methanone], with 77 nM. For `O=C(c1cnc(OCC(F)(F)F)c(Cl)c1)N1C[C@@H]2[C@H](C1)[C@H]1CN(C(=O)c3ccc4[nH]nnc4c3)C[C@@H]21` [Example 1.109, (1H-benzotriazol-5-yl)-{(3aS,3bS,6aR,6bR)-5-[5-chloro-6-(2,2,2-trifluoro-ethoxy)-pyridine-3-carbonyl]-octahydro-cyclobuta[1,2-c;3,4-c′]dipyrrol-2-yl}-methanone] the value was 301 nM.

With `CC(C)Oc1cc(C(=O)N2C[C@@H]3[C@H]4CN(C(=O)c5ccc6[nH]nnc6c5)C[C@H]4[C@@H]3C2)cc2c1ccn2C` [Example 1.065, [(3aS,3bS,6aR,6bR)-5-(1H-benzotriazole-5-carbonyl)-octahydro-cyclobuta[1,2-c;3,4-c′]dipyrrol-2-yl]-(4-isopropoxy-1-methyl-1H-indol-6-yl)-methanone], the IC50 is 6.5 nM. Then `O=C(c1ccc2cc(-c3ccccc3)ccc2c1)N1C[C@@H]2[C@H](C1)[C@H]1CN(C(=O)c3ccc4[nH]nnc4c3)C[C@@H]21` [Example 1.015, [(3aS,3bS,6aR,6bR)-5-(1H-benzotriazole-5-carbonyl)-octahydro-cyclobuta[1,2-c;3,4-c′]dipyrrol-2-yl]-(6-phenyl-naphthalen-2-yl)-methanone], with 11 nM; and `O=C(c1cnc(OCC(F)(F)F)c(-c2ccco2)c1)N1C[C@@H]2[C@H](C1)[C@H]1CN(C(=O)c3ccc4[nH]nnc4c3)C[C@@H]21` [Example 1.108, (1H-benzotriazol-5-yl)-{(3aS,3bS,6aR,6bR)-5-[5-furan-2-yl-6-(2,2,2-trifluoro-ethoxy)-pyridine-3-carbonyl]-octahydro-cyclobuta[1,2-c;3,4-c′]dipyrrol-2-yl}-methanone], with 6 nM; and `Cn1c(C(=O)N2C[C@@H]3[C@H]4CN(C(=O)c5ccc6[nH]nnc6c5)C[C@H]4[C@@H]3C2)cc2ccccc21` [Example 1.024, [(3aR,3bS,6aR,6bS)-5-(1H-benzotriazole-5-carbonyl)-octahydro-cyclobuta[1,2-c;3,4-c′]dipyrrol-2-yl]-(1-methyl-1H-indol-2-yl)-methanone], with 377 nM. For `COc1cc(C(=O)N2C[C@@H]3[C@H]4CN(C(=O)c5ccc6[nH]nnc6c5)C[C@H]4[C@@H]3C2)nc2ccccc12` [Example 1.029, [(3aR,3bS,6aR,6bS)-5-(1H-benzotriazole-5-carbonyl)-octahydro-cyclobuta[1,2-c;3,4-c′]dipyrrol-2-yl]-(4-methoxy-quinolin-2-yl)-methanone] the value was 70 nM; for `O=C(c1cnc(OCC(F)(F)F)c(Br)c1)N1C[C@@H]2[C@H](C1)[C@H]1CN(C(=O)c3ccc4[nH]nnc4c3)C[C@@H]21` [Example 1.100, (1H-benzotriazol-5-yl)-{(3aS,3bS,6aR,6bR)-5-[5-bromo-6-(2,2,2-trifluoro-ethoxy)-pyridine-3-carbonyl]-octahydro-cyclobuta[1,2-c;3,4-c′]dipyrrol-2-yl}-methanone], 10 nM; for `CCn1ccc2c(OCC(F)(F)F)c(C(=O)N3C[C@@H]4[C@H]5CN(C(=O)c6ccc7[nH]nnc7c6)C[C@H]5[C@@H]4C3)ccc21` [Example 1.082, [(3aS,3bS,6aR,6bR)-5-(1H-benzotriazole-5-carbonyl)-octahydro-cyclobuta[1,2-c;3,4-c′]dipyrrol-2-yl]-[1-ethyl-4-(2,2,2-trifluoro-ethoxy)-1H-indol-5-yl]-methanone], 3 nM.
